For orientation: IC50 means the concentration needed to halve the response being measured.

The structures appear in SMILES notation.

This passage reports IC50 results from US20090246134A1, “COMPOSITIONS AND METHODS FOR MODULATING GATED ION CHANNELS” (PainCeptor Pharma Corporation, priority 2007, published 2009).

The assay addresses T1, ASIC1a (Homo sapiens, UniProt P78348).
T1 sequence (P78348 1-528): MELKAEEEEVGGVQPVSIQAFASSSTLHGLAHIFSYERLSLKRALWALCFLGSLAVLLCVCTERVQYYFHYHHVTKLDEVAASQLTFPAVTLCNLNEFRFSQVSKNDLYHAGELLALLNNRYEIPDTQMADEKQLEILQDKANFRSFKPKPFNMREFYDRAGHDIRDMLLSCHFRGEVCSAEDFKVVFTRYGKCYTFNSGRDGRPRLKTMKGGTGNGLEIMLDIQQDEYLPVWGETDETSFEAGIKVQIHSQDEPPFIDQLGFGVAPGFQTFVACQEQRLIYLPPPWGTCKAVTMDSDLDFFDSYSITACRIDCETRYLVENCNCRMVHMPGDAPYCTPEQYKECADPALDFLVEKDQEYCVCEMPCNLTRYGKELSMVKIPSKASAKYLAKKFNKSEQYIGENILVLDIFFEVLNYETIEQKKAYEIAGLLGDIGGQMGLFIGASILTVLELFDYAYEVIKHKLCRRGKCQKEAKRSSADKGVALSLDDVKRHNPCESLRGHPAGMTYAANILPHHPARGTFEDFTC
As to the kind of experiment: Calcium-imaging (calcium mobilization, FLIPR) assay in ASIC1a expressing HEK293 cells. The format is cell-based. As to conditions: n=3-7, compounds not radiolabelled. Also on record: host or cells: HEK293. The procedure:
ASIC1a expressing HEK293 cells are grown in culture medium (DMEM with 10% FBS), in polystyrene culture flasks ([…]) at 37° C. in a humidified atmosphere of 5% CO2. Confluency of cells should be 80-90% on day of plating. Cells are rinsed with 10 ml of PBS and re-suspended by addition of culture medium and trituration with a 25 ml pipette.
The cells are seeded at a density of approximately 1×10^6 cells/ml (100 μl/well) in black-walled, clear bottom, 96-well plates pre-treated with 10 mg/l poly-D-lysin (75 μl/well for ≧30 min). Plated cells were allowed to proliferate for 24 h before loading with dye.
Fluo-4/AM (1 mg, Molecular Probes) is dissolved in 912 μl DMSO. The Fluo-4/AM stock solution (1 mM) is diluted with culture medium to a final concentration of 2 μM (loading solution).
The culture medium is aspirated from the wells, and 50 μl of the Fluo-4/AM loading solution is added to each well. The cells are incubated at 37° C. for 30 min.
After the loading period, the loading solution is aspirated and the cells are washed twice with 100 μl modified Assay Buffer (145 mM NaCl, 5 mM KCl, 5 mM CaCl2, 1 mM MgCl2, 10 mM HEPES, pH 7.4) to remove extracellular dye. Following the second wash, 100 μl modified Assay Buffer is added to each well and the fluorescence is measured in FLIPR™ or FlexStation™ (Molecular Devices, USA), or any other suitable equipment known to the skilled in the art.
Temperature: Room temperature (20-22° C.)
First addition: 50 μl test solution at a rate of 30 μl/sec and a starting height of […]
Second addition: 50 μl MES solution (20 mM, 5 mM final concentration) at a rate of 35 μl/sec and a starting height of 150 μl.
Reading intervals: pre-incubation—10 sec×7 and 3 sec×3 antagonist phase—3 sec×17 and 10 sec×12
Addition plates (compound test plate and MES plate) are placed on the right and left positions in the FLIPR tray, respectively. Cell plates are placed in the middle position and the ASIC1a program is effectuated. FLIPR will then take the appropriate measurements in accordance with the interval settings above. Fluorescence obtained after stimulation is corrected for the mean basal fluorescence (in modified Assay Buffer).
The MES-induced peak calcium response, in the presence of test substance, is expressed relatively to the MES response alone. Test substances that block the MES-induced calcium response are re-tested in triplicates. Confirmed hits are picked for further characterization by performing full dose-response curves to determine potency of each hit compound as represented by the IC50 values (i.e., the concentration of the test substance which inhibits 50% of the MES-induced calcium response).
It is noted that the compounds below are not radiolabelled.

Regarding `COc1ccc(F)cc1-c1cc2c(c3c1CCN(C)C3)NC(=O)C2=NO` [Compound A, 5-(5-fluoro-2-methoxyphenyl)-6,7,8,9-tetrahydro-3-(hydroxyimino)-8-methyl-1H-pyrrolo[3,2-h]isoquinoline-2(3H)-one], the IC50 stood at 700 nM.
